According to publication PMC9612231, “Antileishmanial Anthracene Endoperoxides: Efficacy In Vitro, Mechanisms and Structure-Activity Relationships” (Molecules, 2022):
Like-named read-outs stand apart in the source and are kept apart here.

Columns and labels:
[1] = test system: Leishmania tarentolae promastigotes (LtP); test: Resazurin viability assay for LtP; format: cell-based; conditions: for IC50: Leishmania tarentolae, read-out: LtP IC50; for Selectivity IC50,J774/IC50,LtP: ratio of IC50 in J774 macrophages to IC50 in LtP; for IC50,non-EP/IC50,EP: ratio of IC50 of non-EP in LtP versus IC50 of respective EP
Method: (§1) The influence of AcEP and their analogs (Ac) on the viability of cells was tested in Leishmania tarentolae promastigotes (LtP) and J774 macrophages (Table 2). Based on the changes of viability of the respective cell lines at different compound concentrations, IC50 values were calculated. In Table 2, the IC50 values in both cell lines were compared for the individual compounds. From the ratio of IC50 values in J774 macrophages to IC50 values in LtP, an in vitro selectivity was calculated.
LtP (strain P10 from Jena Bioscience, Jena, Germany) were cultivated according to manufacturer instructions up to passage 50 in brain heart infusion medium (37 g/L, pH 7.4) and supplemented with 5 mg/L hemin and 25,000 IU/L penicillin and 25 mg/L streptomycin in 50 mL TubeSpin bioreactors (TPP, Trasadingen. Switzerland). LtP were grown at 27 °C in an incubator (Ehret, Emmendingen, Germany) and agitated at a frequency of 0.05 s^−1. […] For experiments, LtP were used one day after passage. The cell number was calculated by measuring the optical density (OD) of the culture at 600 nm with a U-1100 photometer (Hitachi Ltd., Tokyo, Japan) and applying the formula × 10^6 cells/mL = OD600nm × 0.969 × 124 × dilution factor [53].
Assay medium of YEM (20.7 g/L yeast extract powder, 1.2 g/L K2HPO4, 0.2 g/L KH2PO4, 2.9 g/L glucose, pH 7.4) and PBS (1:1, v/v), 25,000 U/L penicillin, 25 mg/L streptomycin, and 7.7 µM hemin was prepared. Aliquots of 200 µL of this medium and 2 × 10^6 LtP/mL (where required) were distributed in non-treated cell culture 96-well plates. Compounds (dissolved in DMSO) were added with starting concentrations of 25 µM (Pen) or 200 µM (AcEP/Ac), and then, serial dilutions were carried out resulting in a set of concentrations (25, 5, 1, 0.2, 0.04, and 0.008 µM) or (200, 40, 8, 1.6, 0.32, and 0.064 µM). For each compound concentration, at least triplicates on each plate were performed. After incubation of the plates at 27 °C for 48 h, 50 µL of resazurin solution (final concentration in wells 20 µM) was added to each well and after 4 h of incubation, the fluorescence was measured at 560 nm excitation and 590 nm emission using a plate reader (Perkin Elmer EnSpire, Rodgau, Germany) (adapted from). Combination assays for viability in the presence of PIH and NAC were performed the same way. […] All tests were repeated at least on four different weeks of cultivation.
(§2) Calculations were carried out using Microsoft Excel 2016 (Microsoft). The graphs were created using Origin 6.1 (OriginLab Corporation, Northampton, MA, USA). For all groups of experimental data, mean and standard deviation (SD) were calculated. Statistically significant differences between groups of sample data were identified by unpaired two-tailed Student’s t-test. Differences on the level of p < 0.05 were considered significant. The number of replicates is indicated at the respective figures/tables. The half-maximal inhibitory concentrations (IC50) were determined from non-linear concentration-response curves using a four-parameter logistic model and expressed as the mean ± SD.

J774 macrophages = test: Resazurin viability assay for J774 macrophages; format: cell-based, murine; conditions: Mus musculus, J774, 48 h, read-out: J774 IC50
Method: as §1
The murine macrophage cell line J774A.1 (ATCC, TIB-67™, Wesel, Germany) was cultivated up to passage 30 in DMEM (high glucose, 3.7 g/L NaHCO3, pH 7.4) with 25,000 IU/L penicillin, 25 mg/L streptomycin, and 10% FCS (heat-inactivated) in 50 mL TubeSpin bioreactors. J774 cells were incubated at 37 °C and 5% CO2 on a roller culture apparatus (5 rpm) in a Heraeus Cytoperm 8080 incubator (Thermo Electron Corp., Vienna, Austria). To determine the cell count, the cell suspension was re-suspended and diluted 1:2 with phosphate-buffered saline (PBS): 137 mM NaCl, 1.4 mM KH2PO4, 4.3 mM Na2HPO4, and 2.7 mM KCl, pH 7.4. After fixation of the cells by mixing the cell suspension 1:1 with a formaldehyde solution (2%, v/v), aliquots of the resulting suspension were transferred into a standard Neubauer chamber (VWR, Austria) and counted manually using a light microscope (Motic BA310, Vienna, Austria) at a magnification of 40 times. J774 cells were passaged twice a week in a ratio of 1:10.
DMEM containing 25,000 U/L penicillin, 25 mg/L streptomycin, 10% FCS, and 1 × 10^5 J774/mL was prepared. This mixture (200 µL) was distributed in cell culture-treated 96-well plates, except the control wells which contained only DMEM. The cells were incubated for 24 h at 37 °C and 5% CO2 to allow attachment. Afterwards the medium and non-adherent cells were removed by washing with PBS, and then, 200 µL DMEM was added to attached cells. Compounds dissolved in DMSO were added in starting concentrations of 25 µM (Pen) or 200 µM (AcEP/Ac), and then, serial dilutions were carried out resulting in the same concentration steps as listed for LtP. For each compound concentration triplicates on each plate were performed. […], 50 µL of resazurin solution (final concentration 20 µM) was added, and after 4 h of incubation, the fluorescence was measured at 560 nm excitation and 590 nm emission using a plate reader (Perkin Elmer EnSpire, Rodgau, Germany). All tests were repeated at least on four different weeks of cultivation.
as §2

[2] = resazurin viability, endpoint 48 h, 2 × 10^6 LtP/mL, mean ± SD of 4–8 experiments
[3] = resazurin viability, endpoint 48 h, 10^5 J774 cells/mL, mean ± SD of 4–8 experiments

SMILES	IC50 [1, 2]	Selectivity IC50,J774/IC50,LtP [1]	IC50,non-EP/IC50,EP [1]	IC50 (J774 macrophages; [3])	Activity against LtP, in words ([1]; viability assay)	IC50 ([1]; 48 h)	IC50 (J774 macrophages)
COc1ccccc1C12OOC(c3ccccc3OC)(c3ccccc31)c1ccccc12 [oOMeAcEP]	40.7 ± 12.3 µM	>4.9	1.79	> 200 µM			
c1ccc(C23OOC(c4ccccn4)(c4ccccc42)c2ccccc23)nc1 [oPyAcEP]	1.84 ± 0.13 µM	1.2	18.7	2.24 ± 0.08 µM			
c1ccc(C23OOC(c4ccccc4)(c4ccccc42)c2ccccc23)cc1 [DPAcEP]	9.67 ± 2.15 µM	20	20.3	197 ± 35 µM	rather active		
C[n+]1ccc(C23OOC(c4cc[n+](C)cc4)(c4ccccc42)c2ccccc23)cc1 [Compound 1062MeAcEP]	62 ± 34.2 µM	>3.2		> 200 µM			
CC(C)(C)c1ccc2c(-c3cccnc3)c3ccccc3c(-c3cccnc3)c2c1 [mPyBuAc]		139				0.54 ± 0.09 µM	74.2 ± 45.9 µM
CC(C)(C)c1ccc2c(c1)C1(c3cccnc3)OOC2(c2cccnc2)c2ccccc21 (centres unmarked) [mPyBuAcEP]	0.7 ± 0.31 µM	35	0.77	24.6 ± 7.3 µM			
